Data on ten compounds can be found in ChEMBL document CHEMBL1201862, “PubChem BioAssay data set” (2004).

Test systems include LOX IMVI; OVCAR-3; HCT-15; NCI-H226; A549; RPMI-8226; COLO 205; U-251; K562; SK-MEL-28; SK-OV-3; HT-29; M14; MDA-MB-435; ACHN; BT-549; SR; HOP-62; IGROV-1; NCI-H23.
What all share (assay): NCI tumour cell line growth inhibition, 48 h

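Dose response: 5 concentrations. Exposure: 48 h. Format: 96-well plates. Endpoint: linear interpolation; highest concentration if not reached. GI50 is the concentration that inhibits growth by half.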 Active and inactive are the calls of the source. Cut-off read from the data, not from the text of the source: active = GI50 up to about 1.1 µM and inactive = higher.

As to `Cc1cc(Cc2cc(Cc3cc(C)cc(C(C)(C)C)c3O)c(C)cc2C)c(O)c(C(C)(C)C)c1`, the GI50 with LOX IMVI was 20 µM (inactive); in the assay on OVCAR-3, 16.4 µM (inactive); with HCT-15, 17.4 µM; with NCI-H226 it was 14.8 µM (inactive); with A549 it was 15.4 µM (inactive); in the assay on RPMI-8226, 20 µM (inactive). Moreover, the GI50 in the assay on COLO 205 is 19.5 µM (inactive); in the assay with U-251, > 100 µM (inactive); in the assay with K562 it was 15.7 µM (inactive); with SK-MEL-28, 18 µM (inactive); in the assay with SK-OV-3, 16.7 µM (inactive); with HT-29, 18.6 µM (inactive). In addition, the GI50 in the assay on M14 was 17.4 µM (inactive); with MDA-MB-435, 13 µM (inactive); with ACHN, 16.1 µM (inactive); in the assay on BT-549, 17.5 µM (inactive); with SR it was 29.2 µM (inactive); in the assay on HOP-62, 17.5 µM (inactive). Also, the results for the GI50 with IGROV-1 and in the assay with NCI-H23 were 17.3 µM (inactive) and 17.4 µM (inactive), respectively.
As to `COc1ccc2c3c1OC1C4(CCC5C(C2)N(CC2CC2)CCC351)OCCO4` (stereo not given), the GI50 in the assay with LOX IMVI was > 100 µM (inactive); with OVCAR-3, > 100 µM (inactive); in the assay on HCT-15, more than 100 µM; in the assay with NCI-H226, > 100 µM (inactive); in the assay on A549, > 100 µM (inactive); in the assay on RPMI-8226, > 100 µM (inactive). Besides, the GI50 with COLO 205, in the assay on U-251, in the assay with K562, in the assay with SK-MEL-28, in the assay with SK-OV-3 and in the assay on HT-29 was > 100 µM (inactive) each time. Moreover, the GI50 in the assay on M14, with MDA-MB-435, in the assay on ACHN, in the assay on BT-549, in the assay with SR and in the assay on HOP-62 was > 100 µM (inactive) throughout. The GI50 in the assay with IGROV-1 and with NCI-H23 was > 100 µM (inactive) in each case.
With `CC(C(=O)N1c2ccccc2Sc2ccccc21)N1c2ccccc2Sc2ccccc21` (stereo not given), the GI50 is > 100 µM (inactive) in the assay with LOX IMVI; 55 µM (inactive) with OVCAR-3; more than 100 µM with HCT-15; 40.1 µM (inactive) in the assay with NCI-H226; > 100 µM (inactive) in the assay on A549; > 100 µM (inactive) in the assay on RPMI-8226. In addition, the GI50 in the assay on COLO 205 was 85.7 µM (inactive); in the assay on U-251, 60 µM (inactive); in the assay with K562, 84.1 µM (inactive); in the assay with SK-MEL-28, > 100 µM (inactive); in the assay on SK-OV-3, > 100 µM (inactive); in the assay with HT-29 it was 72.3 µM (inactive). Moreover, the GI50 with M14, in the assay with MDA-MB-435, in the assay on ACHN, with BT-549, with SR and in the assay with HOP-62 was > 100 µM (inactive) each time. The values for the GI50 in the assay with IGROV-1 and in the assay with NCI-H23 were 79.8 µM (inactive) and 74.8 µM (inactive), respectively.
Take `N=C(N)N/N=C\c1ccc(C2CCNCC2)cc1`: the GI50 with LOX IMVI is > 100 µM (inactive); with OVCAR-3, > 100 µM (inactive); in the assay on HCT-15, more than 100 µM; in the assay on NCI-H226, > 100 µM (inactive); with A549 it was > 100 µM (inactive); with RPMI-8226, > 100 µM (inactive). Moreover, the GI50 in the assay on COLO 205, in the assay on U-251, in the assay on K562, with SK-MEL-28, with SK-OV-3 and in the assay with HT-29 was > 100 µM (inactive) throughout. Also, the GI50 in the assay with M14, in the assay on MDA-MB-435, with ACHN, in the assay with BT-549, in the assay on SR and with HOP-62 was > 100 µM (inactive) throughout. The GI50 with IGROV-1 and with NCI-H23 was > 100 µM (inactive) in each case.
On to `COc1cc2c(/C=C3/C(=O)Nc4cc(C)c(O)cc43)c(Cl)[nH]c2cc1C`, for which the GI50 was 5.61 µM (inactive) in the assay on LOX IMVI; 1.06 µM (active) in the assay on OVCAR-3; 3.33 µM with HCT-15; 5.69 µM (inactive) in the assay on NCI-H226; 4.01 µM (inactive) with A549; 1.75 µM (inactive) with RPMI-8226. The GI50 with COLO 205 is 2.03 µM (inactive); with U-251, 3.9 µM (inactive); in the assay with K562, 0.815 µM (active); in the assay with SK-MEL-28 it was 4.91 µM (inactive); in the assay on SK-OV-3 it was 2.1 µM (inactive); in the assay on HT-29, 2.33 µM (inactive). The GI50 with M14 is 1.86 µM (inactive); in the assay on MDA-MB-435, 0.368 µM (active); in the assay on ACHN it was 4.37 µM (inactive); in the assay on BT-549, 6.75 µM (inactive); in the assay on SR, 0.376 µM (active); in the assay on HOP-62 it was 2 µM (inactive). Moreover, the results for the GI50 in the assay with IGROV-1 and in the assay with NCI-H23 were 4.06 µM (inactive) and 1.26 µM (inactive), respectively.
On to `Cc1ccc(S(=O)(=O)N/N=C2/CCC(C(C)(C)C)CC2Br)cc1` (stereo not given), for which the GI50 is 16.4 µM (inactive) in the assay on LOX IMVI; 16.2 µM (inactive) in the assay on OVCAR-3; 34 µM with HCT-15; 17.8 µM (inactive) in the assay with NCI-H226; 34 µM (inactive) in the assay on A549; 28.4 µM (inactive) in the assay on RPMI-8226. The GI50 with COLO 205 was 27.2 µM (inactive); in the assay with U-251 it was 8.24 µM (inactive); in the assay with K562, 19.8 µM (inactive); in the assay on SK-MEL-28, 19.6 µM (inactive); with SK-OV-3, 33.8 µM (inactive); in the assay with HT-29, 29.4 µM (inactive). Moreover, the GI50 with M14 was 17.9 µM (inactive); in the assay with MDA-MB-435 it was 18.7 µM (inactive); with ACHN it was 34.1 µM (inactive); in the assay with BT-549, 32.1 µM (inactive); in the assay with SR, 39 µM (inactive); in the assay on HOP-62 it was 32.4 µM (inactive). The GI50 in the assay on IGROV-1 is 38.6 µM (inactive); with NCI-H23, 28 µM (inactive).
Consider `COCOC1/C=C/CCCC#C[C@H](C)C(=O)CC1` (stereo not given in full), for which the GI50 is 3.05 µM (inactive) in the assay with LOX IMVI; 6.12 µM (inactive) in the assay on OVCAR-3; 8.57 µM in the assay with HCT-15; 19.6 µM (inactive) in the assay with NCI-H226; 8.07 µM (inactive) in the assay on A549; 2.21 µM (inactive) in the assay on RPMI-8226. Also, the GI50 was 5.45 µM (inactive) with COLO 205; 12.2 µM (inactive) in the assay with U-251; 2.7 µM (inactive) with K562; 15.2 µM (inactive) in the assay with SK-MEL-28; 15.8 µM (inactive) in the assay on SK-OV-3; 3.69 µM (inactive) with HT-29. Besides, the GI50 in the assay on M14 is 8.15 µM (inactive); with MDA-MB-435, 7 µM (inactive); in the assay with ACHN it was 14.2 µM (inactive); with BT-549, 12.6 µM (inactive); with SR, 3.46 µM (inactive); with HOP-62 it was 19.5 µM (inactive). Also, the results for the GI50 with IGROV-1 and with NCI-H23 were 9.27 µM (inactive) and 5.97 µM (inactive), respectively.
`CCOc1ccc(NCC2CC/C(=C\C=C\c3ccccc3)C2=O)cc1` (stereo not given): the GI50 in the assay on LOX IMVI was 11 µM (inactive); in the assay with OVCAR-3, 18 µM (inactive); with HCT-15 it was 5.41 µM; in the assay on NCI-H226, 44.7 µM (inactive); in the assay on A549, 42.1 µM (inactive); with RPMI-8226 it was 10.9 µM (inactive). The GI50 was 13.7 µM (inactive) in the assay on COLO 205; 18.8 µM (inactive) in the assay with U-251; 3.61 µM (inactive) in the assay on K562; 16.4 µM (inactive) in the assay with SK-MEL-28; > 100 µM (inactive) in the assay with SK-OV-3; 13.5 µM (inactive) with HT-29. Moreover, the GI50 in the assay on M14 is 13.7 µM (inactive); in the assay on MDA-MB-435, 12.2 µM (inactive); in the assay on ACHN, 30.5 µM (inactive); in the assay with BT-549, 15.2 µM (inactive); with SR, 4 µM (inactive); in the assay on HOP-62, 29.9 µM (inactive). Moreover, the GI50 with IGROV-1 is 12.5 µM (inactive); with NCI-H23 it was 18 µM (inactive).
As for `CC1C2C=CC1C(c1c3ccc(=O)c(O)c-3oc3c(O)c(O)ccc13)C2C(=O)O` (stereo not given), the GI50 is 20.9 µM (inactive) in the assay on LOX IMVI; > 100 µM (inactive) in the assay on OVCAR-3; 47.2 µM in the assay with HCT-15; 10.2 µM (inactive) with NCI-H226; 35 µM (inactive) with A549; 23.2 µM (inactive) in the assay with RPMI-8226. The GI50 in the assay with COLO 205 is > 100 µM (inactive); with U-251 it was 36.5 µM (inactive); in the assay on K562 it was 21.4 µM (inactive); in the assay with SK-MEL-28 it was > 100 µM (inactive); in the assay with SK-OV-3, > 100 µM (inactive); in the assay on HT-29, > 100 µM (inactive). Moreover, the GI50 in the assay with M14 was > 100 µM (inactive); in the assay on MDA-MB-435 it was 19.6 µM (inactive); with ACHN, 53.5 µM (inactive); in the assay with BT-549 it was > 100 µM (inactive); in the assay with SR it was 33.9 µM (inactive); in the assay with HOP-62, > 100 µM (inactive). Also, the GI50 with IGROV-1 was > 100 µM (inactive); in the assay on NCI-H23, 35.6 µM (inactive).
Take `Cc1ccc2c(c1)C(=O)c1nc(C)ccc1C2=O`: the GI50 in the assay with LOX IMVI is 19.8 µM (inactive); with OVCAR-3, 57.1 µM (inactive); in the assay on HCT-15 it was 22.6 µM; in the assay on NCI-H226 it was 43.5 µM (inactive); in the assay with A549, 31 µM (inactive); with RPMI-8226 it was 21.3 µM (inactive). Moreover, the GI50 was 17.3 µM (inactive) in the assay on COLO 205; 35.5 µM (inactive) in the assay on U-251; 37.1 µM (inactive) in the assay on K562; 50.7 µM (inactive) in the assay on SK-MEL-28; > 100 µM (inactive) in the assay with SK-OV-3; 17 µM (inactive) in the assay on HT-29. For the same compound, the GI50 in the assay with M14 is 32.7 µM (inactive); with MDA-MB-435, 21.6 µM (inactive); in the assay with ACHN, 33.3 µM (inactive); in the assay on BT-549, 53.7 µM (inactive); with SR, 47.1 µM (inactive); in the assay with HOP-62 it was 69 µM (inactive). The GI50 in the assay with IGROV-1 is 22.1 µM (inactive); in the assay on NCI-H23, 19.5 µM (inactive).
